Several values for one entry are separate records, joined by “and”; a condition that tells them apart may be missing. Equal values may be shown once.
Experiments:
[1] = test system: hrpA promoter (T3SS); assay: hrpA promoter-probe phrpA in Erwinia amylovora 273, flow cytometry; type: cell-based; conditions: Ea273 (phrpA), HIM + 100 μM compound
Procedure, shortened: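 Erwinia amylovora 273 carrying an hrpA promoter–GFP fusion (pPROBE-NT) was grown in hrp-inducing medium with 100 μM compound or DMSO. Promoter activity read as GFP intensity by flow cytometry at 6 h and 9 h.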

[2] = test system: hrpA promoter (T3SS); assay: GFP reporter plasmid phrpA, flow cytometry (FACS) of hrpA promoter activity; type: cell-based, Dickeya dadantii 3937; conditions: for GFP Mean Fluorescence Intensity, hrpA promoter: MM + 0.1 mM compound
Procedure, shortened: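 D. dadantii (Ech) 3937 carrying the phrpA promoter–GFP transcriptional fusion was grown in T3SS minimal medium with 100 μM compound, starting from an inoculum of OD600 1.0. GFP was read by flow cytometry at 12 and 24 h. Values are mean fluorescence intensity of three replicates ± SD, with compound-free MM as control.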

[3] = test system: hrpL promoter; assay: GFP reporter plasmid phrpL, flow cytometry of hrpL promoter activity; type: cell-based, Dickeya dadantii 3937; conditions: Ech3937 (phrpL), MM + 0.1 mM compound, 12 h
Protocol: (§1) FACS analysis of promoter activity of dspE, hrpA, hrpL, hrpN, and hrpS was carried out as described (Peng et al., 2006). Briefly, the wild-type Ech3937 and the mutant strains carrying the promoter reporter plasmid were grown on LB broth at 28° C. overnight and transferred to appropriate media. For FACS analysis, samples were collected by centrifugation, washed with 1× phosphate buffer saline (PBS) at 13,000 rpm for 1 min, and re-suspended in 1×PBS to ca 10^6 CFU/ml prior to being run in a FACS Calibur flow cytometer (BD Biosciences, CA). Three replicates were performed for each treatment.

[4] = test system: hrpN promoter (T3SS); assay: GFP reporter plasmid phrpN, flow cytometry of hrpN promoter activity; type: cell-based, Dickeya dadantii 3937; conditions: MM + 0.1 mM compound
Protocol: as §1
(§2) Phenolic compounds constitute an important class of organic substances produced by plants. The phenolic compound SA is a signaling molecule that plays a role in host defenses. OCA and TCA are the biosynthetic precursors of SA and are also reported to induce the expression of defense-related genes in plants. OCA, TCA, and SA were examined to elucidate their effects on the expression of T3SS genes. The expression of the T3SS gene hrpN was examined in MM and MM supplemented with OCA, TCA, and SA, at concentrations of 0.05, 0.1, and 0.2 mM, respectively. FIGS. 2A and 2B show the promoter activities of hrpN in Dickeya dadantii 3937 (Ech3937) grown in MM and MM supplemented with 0.05, 0.1, and 0.2 mM OCA, TCA, and SA at 12 h (FIG. 2A) and 24 h (FIG. 2B) post-inoculation. GFP intensity was determined on gated populations of bacterial cells by flow cytometry and analyzed with the Cell Quest software (BD Biosciences, San Jose, Calif.). The growth of Ech3937 in MM supplemented with different concentrations of OCA, TCA and SA was recorded. Compared with MM alone, the average GFP fluorescence intensity of bacterial cells of Ech3937 (phrpN) was increased approximately 4-fold when 0.05 mM of OCA and TCA were added to the medium (FIGS. 2A, 2B).

[5] = test system: Dickeya dadantii 3937 (Ech3937); assay: Bacterial growth in MM supplemented with compound; type: cell-based; conditions: compound added into the MM
Source text: as §2
The expression of the T3SS gene hrpA was further examined in MM and MM supplemented with PCA at concentrations of 0.001, 0.005, 0.01, 0.05 and 0.1 mM respectively. FIGS. 16A and 16B show the promoter activities of hrpA in Dickeya dadantii 3937 (Ech3937) grown in minimum medium (MM) and MM supplemented with different amount of p-coumaric acid (PCA) at 12 h (FIG. 16A) and 24 h (FIG. 16B) post-inoculation. GFP intensity was determined on gated populations of bacterial cells by flow cytometry and analyzed with the Cell Quest software (BD Biosciences, San Jose, Calif.). The growth of Ech3937 in MM supplemented with different concentrations of PCA was recorded. Compared with MM alone, the average GFP fluorescence intensity of bacterial cells of Ech3937 (phrpA) was reduced more than 4-fold when 0.05 and 0.1 mM of PCA were added to the medium (FIGS. 16A, 16B).

[6] = test system: pPROBE-AT vector without promoter insert; assay: pPROBE-AT vector control, flow cytometry; type: cell-based, Dickeya dadantii 3937; conditions: Ech3937 (pPROBE-AT), MM + 0.1 mM compound
Protocol: as §1

Question: `O=C(O)/C=C/c1ccc(O)cc1` [Compound 004, para-coumaric acid] was tested. Which “Avg MFI ± SD, hrpA expression” value ([1]; 6 h) did it give?
Answer: 920.6 ± 29.1

Question: And the “Avg MFI ± SD, hrpA expression” value ([1]; 9 h)?
Answer: 993.8 ± 43.3

Question: And the “inhibitory effect on hrpA at 10 μM, in words” value ([2]; 10 μM added to T3SS-inducing minimal medium (MM))?
Answer: No inhibitory effect

Question: What about the “GFP Mean Fluorescence Intensity, hrpA promoter” value ([2]; Ech3937 (phrpA), 12 h, listed as PCA) of the same molecule?
Answer: 9.2 ± 0.4

Question: What about the “Mean Fluorescence Intensity of GFP (hrpA, phrpA)” value ([2]; Trial 1, MM supplemented with compound at 100 μM) of the same molecule?
Answer: 9.4 ± 0.1

Question: And the “Mean Fluorescence Intensity of GFP (hrpA, phrpA)” value ([2]; Trial 2, MM supplemented with compound at 100 μM)?
Answer: 9.3 ± 0.2

Question: What about the “effect on GFP fluorescence intensity of Ech3937 (phrpA), in words” value ([2]; concentrations at 0.001, 0.005 and 0.01) of the same molecule?
Answer: did not result in substantial reduction of GFP fluorescence intensity

Question: And the “GFP Mean Fluorescence Intensity, hrpA promoter” value ([2]; hrpL mutant WPP96 (phrpA), 12 h)?
Answer: 7.3 ± 0.1

Question: What about the “GFP Mean Fluorescence Intensity, hrpA promoter” value ([2]; hrpL mutant WPP96 (phrpA), 24 h) of the same molecule?
Answer: 9.0 ± 1.6

Question: What about the “GFP Mean Fluorescence Intensity, hrpA promoter” value ([2]; hrpS mutant WPP90 (phrpA), 12 h) of the same molecule?
Answer: 7.9 ± 0.2

Question: And the “GFP Mean Fluorescence Intensity, hrpA promoter” value ([2]; hrpS mutant WPP90 (phrpA), 24 h)?
Answer: 9.3 ± 0.2

Question: And the “GFP Mean Fluorescence Intensity, hrpA promoter” value ([2]; hrpX mutant WPP67 (phrpA), 12 h)?
Answer: 7.9 ± 0.2

Question: And the “GFP Mean Fluorescence Intensity, hrpA promoter” value ([2]; hrpX mutant WPP67 (phrpA), 24 h)?
Answer: 9.0 ± 1.3

Question: And the “GFP Mean Fluorescence Intensity, hrpA promoter” value ([2]; hrpY mutant WPP92 (phrpA), 12 h)?
Answer: 6.9 ± 0.1

Question: And the “GFP Mean Fluorescence Intensity, hrpA promoter” value ([2]; hrpY mutant WPP92 (phrpA), 24 h)?
Answer: 9.4 ± 0.7

Question: What about the “GFP Mean Fluorescence Intensity, hrpL promoter” value [3] of the same molecule?
Answer: 7.8 ± 0.1

Question: What about the “GFP Mean Fluorescence Intensity, hrpN promoter” value ([4]; Ech3937 (phrpN), 12 h, listed as PCA) of the same molecule?
Answer: 6.8 ± 0.8 and 4.3 ± 0.1

Question: And the “GFP Mean Fluorescence Intensity, hrpN promoter” value ([4]; Ech3937 (phrpN), 24 h, listed as PCA)?
Answer: 8.8 ± 2.1

Question: And the “GFP Mean Fluorescence Intensity, hrpN promoter” value ([4]; hrpL mutant WPP96 (phrpN), 12 h)?
Answer: 3.0 ± 0.0

Question: What about the “GFP Mean Fluorescence Intensity, hrpN promoter” value ([4]; hrpL mutant WPP96 (phrpN), 24 h) of the same molecule?
Answer: 4.3 ± 0.1

Question: And the “GFP Mean Fluorescence Intensity, hrpN promoter” value ([4]; hrpS mutant WPP90 (phrpN), 12 h)?
Answer: 3.5 ± 0.1

Question: And the “GFP Mean Fluorescence Intensity, hrpN promoter” value ([4]; hrpS mutant WPP90 (phrpN), 24 h)?
Answer: 5.1 ± 0.1

Question: And the “GFP Mean Fluorescence Intensity, hrpN promoter” value ([4]; hrpX mutant WPP67 (phrpN), 12 h)?
Answer: 3.5 ± 0.2

Question: What about the “GFP Mean Fluorescence Intensity, hrpN promoter” value ([4]; hrpX mutant WPP67 (phrpN), 24 h) of the same molecule?
Answer: 6.3 ± 0.7

Question: And the “GFP Mean Fluorescence Intensity, hrpN promoter” value ([4]; hrpY mutant WPP92 (phrpN), 12 h)?
Answer: 3.6 ± 0.1

Question: What about the “GFP Mean Fluorescence Intensity, hrpN promoter” value ([4]; hrpY mutant WPP92 (phrpN), 24 h) of the same molecule?
Answer: 5.5 ± 0.3

Question: What about the “effect on bacterial growth of Ech3937 in MM, in words” value [5] of the same molecule?
Answer: Inhibition of bacterial growth was not observed

Question: What about the “GFP Mean Fluorescence Intensity, vector control” value ([6]; 12 h, listed as PCA) of the same molecule?
Answer: 2.2 ± 0.2 and 2.3 ± 0.1

Question: And the “GFP Mean Fluorescence Intensity, vector control” value ([6]; 24 h)?
Answer: 4.9 ± 0.1
